# According to US9557338B2 (SIGNAL PHARMACEUTICALS, LLC, priority 2012, dated 2017):
# Where two headings read alike, the source gives them in different places.
# Experiments:
# Type in all cases: cell-based
# [1] = tested on: p70S6K; assay: Luminex multiplex assay, p70S6K phosphorylation in cell lysates
# From the text: (§1) The multiplex Luminex assay format differs from conventional enzyme-linked immunosorbent assay (ELISA) in that the multiplex capture antibody is attached to a polystyrene bead whereas the ELISA capture antibody is attached to the microplate well. The use of the suspension bead-based technology enables the multiplexing capabilities of the Luminex assays. The xMAP® technology uses 5.6 micron polystyrene microspheres, which are internally dyed with red and infrared fluorophores of differing intensities. Each bead is given a unique number, or bead region, allowing differentiation of one bead from another. Beads covalently bound to different specific antibodies can be mixed in the same assay, utilizing a 96-well microplate format. At the completion of the sandwich immunoassay, beads can be read, using the Luminex 100™ or Luminex 200 detection system, in single-file by dual lasers for classification and quantification of each analyte. The Akt-Pathway Phospho 5-plex kit used was custom made and includes the ability to simultaneously measure p-GSK3β (S9), p-PRAS40(T246), and p-4E-BP1(T46).
# (§2) Cells were plated at the required density. The cells were treated with either Compound 1 or rapamycin over a range of concentrations for 1 hour in 5% CO2 at 37° C. Compound 1 and rapamycin were used at the same concentrations as for the proliferation assay. As for the cell proliferation assay, a reference standard was included in the assay for PC3 cells and the coefficient of variation for assay of p-GSK3β(S9) was 37.8% (n=30), p-PRAS40(T246) was 27.8% (n=30) and for p4E-BP1(T46) was 13.5% (n=4). For three cell lines (HCT-116, MDA-MB-231 and HT29) in the assay for phosphorylation of GSK3β, PRAS40 and 4E-BP1, IGF-I stimulation (500 ng/mL, recombinant human IGF-I) for the last 10 min of incubation was used. The media was aspirated from the wells and the plate was placed on ice. Then 35 μL of Lysis Buffer was added to each well and incubated on ice for at least 30 minutes. During the incubation, the standard curve for each phosphoprotein was prepared. The standards provided were reconstituted and serial dilutions were prepared according to the manufacturer's instructions. At the end of the cell lysis step, […] of the lysate was transferred to a V-bottom plate and spun at 4° C. at 2000 rpm for 5 minutes. Both the 1× Luminex bead and 1× detector antibody solutions were prepared during this time. The 1× bead solution was vortexed and 25 μL was added into each well of a black round bottom plate. Then 50 μL of the 1× detector antibody was added to each well. Fifty microliters (50 μL) of the prepared standards were added to the designated wells. Then 25 μL of the assay diluent was added to each well designated for the compound-treated cell lysates. At the end of the spin, 25 μL of cell lysate was added to the corresponding wells of the black assay plate. The assay plate was covered with the white plate lid and incubated for 3 hours at room temperature on an orbital shaker.
# (§3) Approximately 10-15 minutes prior to the end of the first incubation, the secondary antibody solution was prepared according to the vendor's protocol. Goat anti-rabbit R-phycoerythrin red fluorescent protein (RPE) supplied as a 10× concentrate was diluted to generate a 1× goat anti-rabbit RPE stock. The 96-well filter plate was pre-wet with 200 μL of 1× Working wash solution. At the end of the 3 hour incubation, a multichannel pipette was used to transfer the entire contents from each assay well into the wells of the filter plate. The liquid from the wells was removed by aspiration with the vacuum manifold. Then 200 μL of 1× Working wash solution was added into each well. The wash solution was aspirated using the vacuum manifold after 15-30 seconds. This wash step was repeated one time. The bottom of the plate was blotted on clean paper towels to remove residual liquid. […]
# [2] = tested on: Phospho-GSK3β(S9); assay: Luminex multiplex assay, Phospho-GSK3β(S9)
# From the text: (§4) Determination of Phospho-GSK3β(S9), Phospho-PRAS40(T246) and Phospho-4E-BP1(T46) and the Effect of Compound 1 or Rapamycin.
# as §1, §2, §3
# [3] = tested on: Phospho-PRAS40(T246); assay: Luminex multiplex assay, Phospho-PRAS40(T246)
# From the text: as §4, §1, §2, §3
# [4] = PC3 cell line, read-out: Luminex p70S6K
# [5] = PC3 cell line, read-out: Luminex GSK-3β
# [6] = PC3 cell line, read-out: Luminex PRAS40
# [7] = Homo sapiens, HCT-116, HCT116 cell line, IGF, read-out: Luminex p70S6K (IGF)
# [8] = Homo sapiens, U-87 MG, U87MG cell line, read-out: Luminex p70S6K
# [9] = Homo sapiens, U-87 MG, U87MG cell line, read-out: Luminex GSK-3β
# [10] = Homo sapiens, HCT-116, HCT116 cell line, IGF, read-out: Luminex PRAS40 (IGF)
# [11] = Homo sapiens, U-87 MG, U87MG cell line, read-out: Luminex PRAS40
Structure (SMILES),"IC50 [1, 4] [nM]","IC50 [2, 5] [nM]","IC50 [3, 6] [nM]",also measured
Cc1c(-c2cnc3c(n2)N(CCC2CCOCC2)CC(=O)N3)ccc(-c2nnc[nH]2)c1F [C-34],21,> 5000,1520,–
CC(C)(O)c1ccc(-c2cnc3[nH]c(=O)n(CCC4CCOCC4)c3n2)cn1 [C-3],247,2590,1300,–
CO[C@H]1CC[C@H](N2CC(=O)Nc3ncc(-c4ccc(C(C)(C)O)nc4)nc32)CC1 [C-8],116,627,688,–
CC(C)(O)c1ccc(-c2cnc3c(n2)N(CC2CCOCC2)CC(=O)N3)cn1 [C-5],156,964,1750,–
CC(C)(O)c1ccc(-c2cnc3c(n2)N(CC2CCOCC2)CC(=O)N3)cc1 [C-11],201,1170,754,–
CC(C)(O)c1ccc(-c2cnc3c(n2)N([C@H]2CC[C@@H](O)CC2)C(=O)CN3)cn1 [C-64],61,299,349,–
"Cc1nc(-c2nnc[nH]2)ccc1-c1cnc2c(n1)N(CCC1CCOCC1)C(=O)CN2 [A-4, 7-(2-methyl-6-(4H-1,2,4-triazol-3-yl)pyridin-3-yl)-1-(2-(tetrahydro-2H-pyran-4-yl)ethyl)-3,4-dihydropyrazino[2,3-b]pyrazin-2(1H)-one]",–,–,–,"IC50 [1, 7]: 96.6 nM; IC50 [1, 8]: 27.8 nM; IC50 ([2]; Homo sapiens, HCT-116, HCT116 cell line, IGF, read-out: Luminex GSK-3β (IGF)): 96.2 nM; IC50 [2, 9]: 71 nM; IC50 [3, 10]: 120 nM; IC50 [3, 11]: 98 nM"
CC(C)(O)c1ccc(-c2cnc3c(n2)N(CC2CC2)CC(=O)N3)cn1 [C-17],549,> 5000,2900,–
O=C1CNc2ncc(-c3cncnc3)nc2N1CCC1CCOCC1 [C-106],> 1500,> 1500,> 1500,–
COCCN1C(=O)CNc2ncc(-c3ccc4cn[nH]c4c3)nc21 [C-107],143,> 1500,> 1500,–
Cc1cc(-c2nnc[nH]2)ccc1-c1cnc2c(n1)NC(=O)CN2 [C-35],815,–,–,–
COC1CCC(CN2CC(=O)Nc3ncc(-c4ccc(C(C)(C)O)nc4)nc32)C1 (stereo not shown) [C-21],105,1680,795,–
Cc1cc(-c2nnc[nH]2)ncc1-c1cnc2c(n1)N(CC1CCOCC1)C(C)(C)C(=O)N2 [C-30],1,21,5,–
O=C1CN(CCC2CCOCC2)c2nc(-c3ccc4cn[nH]c4c3)cnc2N1 [C-68],752,> 1500,> 1500,–
Cc1cc(-c2cnc3c(n2)N(CC2CCOCC2)C(=O)CN3)cc2[nH]c(=O)[nH]c12 [C-38],5000,> 5000,3250,–
O=C1CNc2ncc(-c3cnc4nc[nH]c4c3)nc2N1CCC1CCOCC1 [C-67],> 1500,> 1500,> 1500,–
"COCCN1CC(=O)Nc2ncc(-c3ccc(-c4nnc[nH]4)nc3C)nc21 [A-5, 4-(2-methoxyethyl)-6-(2-methyl-6-(4H-1,2,4-triazol-3-yl)pyridin-3-yl)-3,4-dihydropyrazino[2,3-b]pyrazin-2(1H)-one]",–,–,–,"IC50 [1, 7]: 514 nM; IC50 [1, 8]: 104 nM; IC50 [2, 9]: 2160 nM; IC50 [3, 10]: 762 nM; IC50 [3, 11]: 1090 nM"
CO[C@@H]1CC[C@@H](CN2CC(=O)Nc3ncc(-c4ccc(C(C)(C)O)nc4)nc32)C1 [C-25],94,1780,705,–

Structure (SMILES),"IC50 [1, 4] [nM]","IC50 [2, 5] [nM]","IC50 [3, 6] [nM]",also measured
O=C1CN(CCC2CCOCC2)c2nc(-c3cnc4[nH]ccc4c3)cnc2N1 [C-44],17,313,98,–
NC(=O)c1ccc(-c2cnc3c(n2)N(CCC2CCOCC2)C(=O)CN3)cc1 [C-63],216,927,842,–
COC1CCC(N2C(=O)CNc3ncc(-c4ccc(C(C)(C)O)[n+]([O-])c4)nc32)CC1 (stereo not shown) [C-98],825,> 1500,> 1500,–
O=C1CN(CCC2CCOCC2)c2nc(-c3cnc4nc[nH]c4c3)cnc2N1 [C-74],> 1500,> 1500,> 1500,–
COC1CCC(N2C(=O)CNc3ncc(-c4ccc(-c5nnc[nH]5)nc4C)nc32)C1 (stereo not shown) [C-59],28,126,99,–
COCCN1CC(=O)Nc2ncc(-c3ccc(-c4nnc[nH]4)nc3C)nc21 [C-10],–,1430,624,–
COCCN1C(=O)CNc2ncc(-c3cnc(-c4nc[nH]n4)cc3C)nc21 [C-33],1,81,–,–
"CCn1c(=O)[nH]c2ncc(-c3ccc(-c4nnc[nH]4)nc3C)nc21 [A-2, 1-ethyl-6-(2-methyl-6-(4H-1,2,4-triazol-3-yl)pyridin-3-yl)-1H-imidazo[4,5-b]pyrazin-2(3H)-one]",–,–,–,"IC50 [1, 7]: 1240 nM; IC50 [1, 8]: 433 nM"
Cc1nc(-c2nnc[nH]2)ccc1-c1cnc2c(n1)N(C1CCOCC1)C(=O)CN2 [C-60],–,58,55,–
CCN1CC(=O)Nc2ncc(-c3ccc(-c4nnc[nH]4)nc3C)nc21 [C-45],–,738,1090,–
CO[C@H]1CC[C@@H](CN2C(=O)CNc3ncc(-c4ccc(-c5nc[nH]n5)nc4C)nc32)CC1 [C-66],–,15,12,–
Cc1nc(-c2nnc[nH]2)ccc1-c1cnc2c(n1)N(C1CCC(O)CC1)C(=O)CN2 (stereo not shown) [C-71],–,40,37,–
CO[C@@H]1CC[C@H](CN2CC(=O)Nc3ncc(-c4ccc(-c5nnc[nH]5)nc4C)nc32)C1 [C-36],16,–,–,–
Cc1nc(-c2nnc[nH]2)ccc1-c1cnc2c(n1)N(C1CCC(O)CC1)C(=O)CN2 (stereo not shown) [C-72],–,310,105,–
CO[C@H]1CC[C@@H](CN2CC(=O)Nc3ncc(-c4ccc(-c5nnc[nH]5)nc4C)nc32)C1 [C-37],24,–,–,–
COC1CCC(CN2C(=O)CNc3ncc(-c4ccc(-c5nc[nH]n5)nc4C)nc32)CC1 (stereo not shown) [C-46],–,218,144,–
Cc1nc(-c2nnc[nH]2)ccc1-c1cnc2c(n1)N(CCN1CCOCC1)C(=O)CN2 [C-73],–,671,261,–
